# Source: ChEMBL document CHEMBL3044736, “Synthesis, characterization, solvatochromic properties, and antimicrobial evaluation of 5-acetyl-2-thioxo-dihydro-pyrimidine-4,6-dione-based chalcones” (2013)
# Assays:
# Assay type in all cases: functional
# Penicillium [1] = experiment: Antimicrobial activity against Penicillium wild strain assessed as diameter of growth inhibition zone at 50 ug/ml after 48-96 hr by agar cup diffusion method; conditions: read-out: DIZ
# Staphylococcus aureus [2] = experiment: Antimicrobial activity against Staphylococcus aureus MTCC 96 assessed as diameter of growth inhibition zone at 250 ug/ml after 18-24 hr by agar cup diffusion method; conditions: read-out: DIZ
# Streptococcus pyogenes [3] = experiment: Antimicrobial activity against Streptococcus pyogenes MTCC 442 by agar cup diffusion method
# Streptococcus pyogenes [4] = experiment: Antimicrobial activity against Streptococcus pyogenes MTCC 442 assessed as diameter of growth inhibition zone at 50 ug/ml after 18-24 hr by agar cup diffusion method; conditions: read-out: DIZ
# Trichophyton rubrum [5] = experiment: Antimicrobial activity against Trichophyton rubrum MTCC 296 assessed as diameter of growth inhibition zone at 100 ug/ml after 48-96 hr by agar cup diffusion method; conditions: read-out: DIZ
# Staphylococcus aureus [6] = experiment: Antimicrobial activity against Staphylococcus aureus MTCC 96 by agar cup diffusion method
# Escherichia coli [7] = experiment: Antimicrobial activity against Escherichia coli MTCC 443 assessed as diameter of growth inhibition zone at 50 ug/ml after 18-24 hr by agar cup diffusion method; conditions: read-out: DIZ
# Streptococcus pyogenes [8] = experiment: Antimicrobial activity against Streptococcus pyogenes MTCC 442 assessed as diameter of growth inhibition zone at 250 ug/ml after 18-24 hr by agar cup diffusion method; conditions: read-out: DIZ
# Staphylococcus aureus [9] = experiment: Antimicrobial activity against Staphylococcus aureus MTCC 96 assessed as diameter of growth inhibition zone at 100 ug/ml after 18-24 hr by agar cup diffusion method; conditions: read-out: DIZ
# Trichophyton rubrum [10] = experiment: Antimicrobial activity against Trichophyton rubrum MTCC 296 assessed as diameter of growth inhibition zone at 50 ug/ml after 48-96 hr by agar cup diffusion method; conditions: read-out: DIZ
# Klebsiella pneumoniae [11] = experiment: Antimicrobial activity against Klebsiella pneumoniae MTCC 109 assessed as diameter of growth inhibition zone at 50 ug/ml after 18-24 hr by agar cup diffusion method; conditions: read-out: DIZ
# Streptococcus pyogenes [12] = experiment: Antimicrobial activity against Streptococcus pyogenes MTCC 442 assessed as diameter of growth inhibition zone at 25 ug/ml after 18-24 hr by agar cup diffusion method; conditions: read-out: DIZ
# Candida albicans [13] = experiment: Antimicrobial activity against Candida albicans MTCC 227 assessed as diameter of growth inhibition zone at 25 ug/ml after 48-96 hr by agar cup diffusion method; conditions: read-out: DIZ
# Candida albicans [14] = experiment: Antimicrobial activity against Candida albicans MTCC 227 by agar cup diffusion method
# Aspergillus clavatus [15] = experiment: Antimicrobial activity against Aspergillus clavatus MTCC 1323 assessed as diameter of growth inhibition zone at 25 ug/ml after 48-96 hr by agar cup diffusion method; conditions: read-out: DIZ
# Pseudomonas aeruginosa [16] = experiment: Antimicrobial activity against Pseudomonas aeruginosa MTCC 1688 assessed as diameter of growth inhibition zone at 100 ug/ml after 18-24 hr by agar cup diffusion method; conditions: read-out: DIZ
# Pseudomonas aeruginosa [17] = experiment: Antimicrobial activity against Pseudomonas aeruginosa MTCC 1688 assessed as diameter of growth inhibition zone at 250 ug/ml after 18-24 hr by agar cup diffusion method; conditions: read-out: DIZ
# Trichophyton rubrum [18] = experiment: Antimicrobial activity against Trichophyton rubrum MTCC 296 by agar cup diffusion method
# Candida albicans [19] = experiment: Antimicrobial activity against Candida albicans MTCC 227 assessed as diameter of growth inhibition zone at 100 ug/ml after 48-96 hr by agar cup diffusion method; conditions: read-out: DIZ
# Penicillium [20] = experiment: Antimicrobial activity against Penicillium wild strain assessed as diameter of growth inhibition zone at 250 ug/ml after 48-96 hr by agar cup diffusion method; conditions: read-out: DIZ
# Penicillium [21] = experiment: Antimicrobial activity against Penicillium wild strain by agar cup diffusion method
# Staphylococcus aureus [22] = experiment: Antimicrobial activity against Staphylococcus aureus MTCC 96 assessed as diameter of growth inhibition zone at 25 ug/ml after 18-24 hr by agar cup diffusion method; conditions: read-out: DIZ
# Klebsiella pneumoniae [23] = experiment: Antimicrobial activity against Klebsiella pneumoniae MTCC 109 by agar cup diffusion method
# Escherichia coli [24] = experiment: Antimicrobial activity against Escherichia coli MTCC 443 assessed as diameter of growth inhibition zone at 25 ug/ml after 18-24 hr by agar cup diffusion method; conditions: read-out: DIZ
# Streptococcus pyogenes [25] = experiment: Antimicrobial activity against Streptococcus pyogenes MTCC 442 assessed as diameter of growth inhibition zone at 100 ug/ml after 18-24 hr by agar cup diffusion method; conditions: read-out: DIZ
# Pseudomonas aeruginosa [26] = experiment: Antimicrobial activity against Pseudomonas aeruginosa MTCC 1688 by agar cup diffusion method
# Klebsiella pneumoniae [27] = experiment: Antimicrobial activity against Klebsiella pneumoniae MTCC 109 assessed as diameter of growth inhibition zone at 100 ug/ml after 18-24 hr by agar cup diffusion method; conditions: read-out: DIZ
# Escherichia coli [28] = experiment: Antimicrobial activity against Escherichia coli MTCC 443 assessed as diameter of growth inhibition zone at 250 ug/ml after 18-24 hr by agar cup diffusion method; conditions: read-out: DIZ
# Pseudomonas aeruginosa [29] = experiment: Antimicrobial activity against Pseudomonas aeruginosa MTCC 1688 assessed as diameter of growth inhibition zone at 50 ug/ml after 18-24 hr by agar cup diffusion method; conditions: read-out: DIZ
# Aspergillus clavatus [30] = experiment: Antimicrobial activity against Aspergillus clavatus MTCC 1323 assessed as diameter of growth inhibition zone at 250 ug/ml after 48-96 hr by agar cup diffusion method; conditions: read-out: DIZ
# Aspergillus clavatus [31] = experiment: Antimicrobial activity against Aspergillus clavatus MTCC 1323 assessed as diameter of growth inhibition zone at 50 ug/ml after 48-96 hr by agar cup diffusion method; conditions: read-out: DIZ
# Penicillium [32] = experiment: Antimicrobial activity against Penicillium wild strain assessed as diameter of growth inhibition zone at 25 ug/ml after 48-96 hr by agar cup diffusion method; conditions: read-out: DIZ
# Escherichia coli [33] = experiment: Antimicrobial activity against Escherichia coli MTCC 443 by agar cup diffusion method
# Aspergillus clavatus [34] = experiment: Antimicrobial activity against Aspergillus clavatus MTCC 1323 by agar cup diffusion method
# Aspergillus clavatus [35] = experiment: Antimicrobial activity against Aspergillus clavatus MTCC 1323 assessed as diameter of growth inhibition zone at 100 ug/ml after 48-96 hr by agar cup diffusion method; conditions: read-out: DIZ
# Penicillium [36] = experiment: Antimicrobial activity against Penicillium wild strain assessed as diameter of growth inhibition zone at 100 ug/ml after 48-96 hr by agar cup diffusion method; conditions: read-out: DIZ
# Escherichia coli [37] = experiment: Antimicrobial activity against Escherichia coli MTCC 443 assessed as diameter of growth inhibition zone at 100 ug/ml after 18-24 hr by agar cup diffusion method; conditions: read-out: DIZ
# Klebsiella pneumoniae [38] = experiment: Antimicrobial activity against Klebsiella pneumoniae MTCC 109 assessed as diameter of growth inhibition zone at 250 ug/ml after 18-24 hr by agar cup diffusion method; conditions: read-out: DIZ
# Staphylococcus aureus [39] = experiment: Antimicrobial activity against Staphylococcus aureus MTCC 96 assessed as diameter of growth inhibition zone at 50 ug/ml after 18-24 hr by agar cup diffusion method; conditions: read-out: DIZ
# Trichophyton rubrum [40] = experiment: Antimicrobial activity against Trichophyton rubrum MTCC 296 assessed as diameter of growth inhibition zone at 250 ug/ml after 48-96 hr by agar cup diffusion method; conditions: read-out: DIZ
# Candida albicans [41] = experiment: Antimicrobial activity against Candida albicans MTCC 227 assessed as diameter of growth inhibition zone at 250 ug/ml after 48-96 hr by agar cup diffusion method; conditions: read-out: DIZ
# Pseudomonas aeruginosa [42] = experiment: Antimicrobial activity against Pseudomonas aeruginosa MTCC 1688 assessed as diameter of growth inhibition zone at 25 ug/ml after 18-24 hr by agar cup diffusion method; conditions: read-out: DIZ
# Candida albicans [43] = experiment: Antimicrobial activity against Candida albicans MTCC 227 assessed as diameter of growth inhibition zone at 50 ug/ml after 48-96 hr by agar cup diffusion method; conditions: read-out: DIZ
# Trichophyton rubrum [44] = experiment: Antimicrobial activity against Trichophyton rubrum MTCC 296 assessed as diameter of growth inhibition zone at 25 ug/ml after 48-96 hr by agar cup diffusion method; conditions: read-out: DIZ
# Klebsiella pneumoniae [45] = experiment: Antimicrobial activity against Klebsiella pneumoniae MTCC 109 assessed as diameter of growth inhibition zone at 25 ug/ml after 18-24 hr by agar cup diffusion method; conditions: read-out: DIZ
compound,measurement,setting,value
O=C(/C=C/c1ccc(Cl)cc1)C1C(=O)NC(=S)NC1=O,zone of inhibition at 50 µg/mL,Penicillium [1],22 mm
same,zone of inhibition at 250 µg/mL,Staphylococcus aureus [2],15 mm
same,MBC,Streptococcus pyogenes [3],125 µg/mL
same,MIC,Streptococcus pyogenes [3],100 µg/mL
same,zone of inhibition at 50 µg/mL,Streptococcus pyogenes [4],14 mm
same,zone of inhibition at 100 µg/mL,Trichophyton rubrum [5],21 mm
same,MBC,Staphylococcus aureus [6],100 µg/mL
same,MIC,Staphylococcus aureus [6],100 µg/mL
same,zone of inhibition at 50 µg/mL,Escherichia coli [7],14 mm
same,zone of inhibition at 250 µg/mL,Streptococcus pyogenes [8],19 mm
same,zone of inhibition at 100 µg/mL,Staphylococcus aureus [9],13 mm
same,zone of inhibition at 50 µg/mL,Trichophyton rubrum [10],20 mm
same,zone of inhibition at 50 µg/mL,Klebsiella pneumoniae [11],15 mm
same,zone of inhibition at 25 µg/mL,Streptococcus pyogenes [12],11 mm
same,zone of inhibition at 25 µg/mL,Candida albicans [13],20 mm
same,MFC,Candida albicans [14],500 µg/mL
same,MIC,Candida albicans [14],500 µg/mL
same,zone of inhibition at 25 µg/mL,Aspergillus clavatus [15],18 mm
same,zone of inhibition at 100 µg/mL,Pseudomonas aeruginosa [16],13 mm
same,zone of inhibition at 250 µg/mL,Pseudomonas aeruginosa [17],15 mm
same,MFC,Trichophyton rubrum [18],> 1000 µg/mL
same,MIC,Trichophyton rubrum [18],> 1000 µg/mL
same,zone of inhibition at 100 µg/mL,Candida albicans [19],22 mm
same,zone of inhibition at 250 µg/mL,Penicillium [20],25 mm
same,MFC,Penicillium [21],> 1000 µg/mL
same,MIC,Penicillium [21],> 1000 µg/mL
same,zone of inhibition at 25 µg/mL,Staphylococcus aureus [22],11 mm
same,MBC,Klebsiella pneumoniae [23],125 µg/mL
same,MIC,Klebsiella pneumoniae [23],100 µg/mL
same,zone of inhibition at 25 µg/mL,Escherichia coli [24],11 mm
same,zone of inhibition at 100 µg/mL,Streptococcus pyogenes [25],17 mm
same,MBC,Pseudomonas aeruginosa [26],250 µg/mL
same,MIC,Pseudomonas aeruginosa [26],200 µg/mL
same,zone of inhibition at 100 µg/mL,Klebsiella pneumoniae [27],17 mm
same,zone of inhibition at 250 µg/mL,Escherichia coli [28],19 mm
same,zone of inhibition at 50 µg/mL,Pseudomonas aeruginosa [29],12 mm
same,zone of inhibition at 250 µg/mL,Aspergillus clavatus [30],22 mm
same,zone of inhibition at 50 µg/mL,Aspergillus clavatus [31],20 mm
same,zone of inhibition at 25 µg/mL,Penicillium [32],19 mm
same,MBC,Escherichia coli [33],125 µg/mL
same,MIC,Escherichia coli [33],125 µg/mL
same,MFC,Aspergillus clavatus [34],500 µg/mL
same,MIC,Aspergillus clavatus [34],500 µg/mL
same,zone of inhibition at 100 µg/mL,Aspergillus clavatus [35],22 mm
same,zone of inhibition at 100 µg/mL,Penicillium [36],23 mm
same,zone of inhibition at 100 µg/mL,Escherichia coli [37],17 mm
same,zone of inhibition at 250 µg/mL,Klebsiella pneumoniae [38],20 mm
same,zone of inhibition at 50 µg/mL,Staphylococcus aureus [39],12 mm
same,zone of inhibition at 250 µg/mL,Trichophyton rubrum [40],22 mm
same,zone of inhibition at 250 µg/mL,Candida albicans [41],23 mm
same,zone of inhibition at 25 µg/mL,Pseudomonas aeruginosa [42],11 mm
same,zone of inhibition at 50 µg/mL,Candida albicans [43],21 mm
same,zone of inhibition at 25 µg/mL,Trichophyton rubrum [44],18 mm
same,zone of inhibition at 25 µg/mL,Klebsiella pneumoniae [45],13 mm
